Laboratory results from ChEMBL document CHEMBL4823257, “Penitol A and Penicitols E-I: Citrinin Derivatives from Penicillium citrinum and the Structure Revision of Previously Proposed Analogues” (J Nat Prod, 2021).
Values after ≈ are worked out from the molar mass of the structure shown.

How the values were obtained:
[1] = tested on: HL-60; test: Cytotoxicity against human HL-60 cells by MTT assay; type: functional, cell-based
[2] = tested on: A549; test: Cytotoxicity against human A549 cells by SRB assay; type: functional, cell-based
[3] = tested on: Pseudomonas aeruginosa; test: Antibacterial activity against Pseudomonas aeruginosa 14; type: functional
[4] = tested on: Escherichia coli; test: Antibacterial activity against Escherichia coli ATCC 25922; type: functional
[5] = tested on: Bacillus subtilis; test: Antibacterial activity against Bacillus subtilis ATCC 6051; type: functional
[6] = tested on: L02; test: Cytotoxicity against human L02 cells by SRB assay; type: functional, cell-based
[7] = tested on: Enterococcus faecalis; test: Antibacterial activity against Vancomycin resistant Enterococcus faecalis 1010798; type: functional
[8] = tested on: K562; test: Cytotoxicity against human K562 cells by MTT assay; type: functional, cell-based
[9] = tested on: MDA-MB-231; test: Cytotoxicity against human MDA-MB-231 cells by SRB assay; type: functional, cell-based
[10] = tested on: Bel-7402; test: Cytotoxicity against human Bel-7402 cells by SRB assay; type: functional, cell-based
[11] = tested on: Staphylococcus aureus; test: Antibacterial activity against Staphylococcus aureus ATCC 29213; type: functional
[12] = tested on: HCT-116; test: Cytotoxicity against human HCT-116 cells by SRB assay; type: functional, cell-based
[13] = tested on: Klebsiella pneumoniae; test: Antibacterial activity against Klebsiella pneumoniae WNX-1; type: functional
[14] = tested on: MCF7; test: Cytotoxicity against human MCF7 cells by SRB assay; type: functional, cell-based

| Compound | IC50 [1] [µM] | IC50 [2] [µM] | MIC [3] [µg/mL] | MIC [4] [µg/mL] | MIC [5] [µg/mL] | IC50 [6] [µM] | MIC [7] [µg/mL] | IC50 [8] [µM] | IC50 [9] [µM] | IC50 [10] [µM] | MIC [11] [µg/mL] | IC50 [12] [µM] | MIC [13] [µg/mL] | IC50 [14] [µM] |
| --- | --- | --- | --- | --- | --- | --- | --- | --- | --- | --- | --- | --- | --- | --- |
| Cc1c(O)cc(O)c2c1[C@H](C)[C@@H](C)OC21CCCCC1 | 20 | 28 | > 64 | > 64 | 32 (≈ 116 µM) | > 30 | 32 (≈ 116 µM) | 8.8 | 26 | 12 | 16 (≈ 57.9 µM) | 24 | > 64 | 15 |
| Cc1c(O)cc2c3c1[C@H](C)[C@@H](C)O[C@@H]3[C@H]1CCCC[C@]1(O)O2 | > 30 | > 30 | > 64 | > 64 | > 64 | > 30 | > 64 | > 30 | > 30 | > 30 | > 64 | > 30 | > 64 | > 30 |
| C/C=C/[C@@H]1C=C[C@@H]2C[C@H](C)CC[C@H]2[C@]1(C)/C(O)=C1/C(=O)[C@H](CO)N(C)C1=O | – | – | – | – | 1 (≈ 2.68 µM) | – | 2 (≈ 5.35 µM) | – | – | – | 2 (≈ 5.35 µM) | – | – | – |
| COLISTIN | – | – | 0.3 | 0.5 | – | – | – | – | – | – | – | – | 0.5 | – |
| Cc1c(O)cc2c3c1[C@H](C)[C@@H](C)O[C@@H]3[C@@H]1CCCC[C@]1(O)O2 | > 30 | > 30 | > 64 | > 64 | > 64 | > 30 | > 64 | > 30 | > 30 | > 30 | > 64 | > 30 | > 64 | > 30 |
| CO[C@@]12CCCC[C@H]1[C@@H]1O[C@H](C)[C@@H](C)c3c(C)c(O)cc(c31)O2 | > 30 | > 30 | > 64 | > 64 | 32 (≈ 100 µM) | > 30 | 32 (≈ 100 µM) | 26 | > 30 | > 30 | 64 (≈ 201 µM) | > 30 | > 64 | > 30 |
| Cc1c(O)cc2c3c1[C@H](C)[C@@H](C)O[C@H]3[C@H]1CCCC[C@@]1(O)O2 | – | – | > 64 | > 64 | > 64 | > 30 | > 64 | > 30 | > 30 | – | > 64 | – | > 64 | – |
| CO[C@]12CCCC[C@@H]1[C@H]1O[C@H](C)[C@@H](C)c3c(C)c(O)cc(c31)O2 | > 30 | 19 | > 64 | > 64 | > 64 | > 30 | > 64 | > 30 | > 30 | 17 | > 64 | > 30 | > 64 | > 30 |
| Cc1c(O)cc2c3c1[C@H](C)[C@@H](C)O[C@H]3[C@@H]1CCCC[C@@]1(O)O2 | > 30 | > 30 | > 64 | > 64 | > 64 | > 30 | > 64 | > 30 | > 30 | > 30 | > 64 | > 30 | > 64 | > 30 |
| COc1cccc2c1C(=O)c1c(O)c3c(c(O)c1C2=O)C[C@@](O)(C(=O)CO)C[C@@H]3O[C@H]1C[C@H](N)[C@H](O)[C@H](C)O1 [DOXORUBICIN] | < 1 | < 1 | – | – | – | < 1 | – | < 1 | < 1 | < 1 | – | < 1 | – | < 1 |
